Laboratory results reported in patent publication US11084781B2, “Diarylureas as CB1 allosteric modulators” (Research Triangle Institute, priority 2017, dated 2021).
Entries after “also recorded” stand apart in the source; their conditions may differ.

What was measured:
human CB1 receptor [1] = target: T1, human CB1 receptor (Homo sapiens, UniProt P21554); test: CB1 calcium mobilization assay (antagonist mode, against EC80 of CP55,940); format: cell-based; conditions: Table 1; against EC80 (100 nM) of CP55,940; mean ± S.E.M.; read-out: CB1 calcium assay IC50
T1 construct: host or cells: CHO-RD-HGA16 cells (CHO cells overexpressing promiscuous Galpha16)

human CB1 receptor [2] = target: T1, human CB1 receptor; test: CB1 calcium mobilization assay, agonist screen; format: cell-based; conditions: Table 1; 10,000 nM final concentration; mean ± SD
CB1 receptor = target: T2, CB1 receptor (Mus musculus, UniProt P47746); test: [35S]GTP-γ-S binding assay in mouse cerebellar membranes, CP55,940-stimulated; format: biochemical; conditions: for IC50: CP55,940 (100 nM) stimulation, mean (95% confidence interval)
T2 construct: from tissue; host or cells: cerebellar membranes of adult male CD-1 mice

[3] = Metabolic stability in rat liver microsomes; format: in vitro ADME
Method: Metabolic stability assessment was performed by Paraza Pharma Inc. (Montreal, Canada).
Compounds were incubated with rat liver microsomes at 37° C. for a total of 45 minutes. The reaction was performed at pH 7.4 in 100 mM potassium phosphate buffer containing 0.5 mg/mL of rat liver microsomal protein. Phase I metabolism was assessed by adding NADPH to a final concentration of 1 mM and collecting samples at time points 0, 5, 15, 30 and 45 minutes. All collected samples were quenched 1:1 with ice-cold stop solution (1 μM labetalol and 1 μM glyburide in acetonitrile), and centrifuged to remove precipitated protein. Resulting supernatants were further diluted 1:4 with acetonitrile:water (1:1). Samples were analyzed by LC/MS/MS and calculations for half-life, and in-vitro clearance were accomplished using Microsoft Excel (2007).

[4] = test system: cocaine-seeking behavior in rats; test: Reinstatement of extinguished cocaine-seeking behavior; format: in vivo, rat
Method: Animals: Adult male Sprague-Dawley rats (Harlan, Indianapolis, Ind.) weighing 280-300 g were used in the study. Animals were housed individually on a 12/12 hr light/dark cycle (behavioral experiments were conducted during the light period) with free access to water and food except during experimental sessions. Animals were maintained and experiments conducted in accordance with the Institutional Animal Care and Use Committee, University at Buffalo, and with the 2011 Guide for the Care and Use of Laboratory Animals (Institute of Laboratory Animal Resources on Life Sciences, National Research Council, National Academy of Sciences, Washington D.C.).
Drug self-administration, extinction and reinstatement: The reinstatement procedure was described in detail elsewhere^37, 38. Briefly, rats were surgically implanted with a chronic indwelling jugular catheter. After one-week recovery, rats were trained to press the active lever (left lever) for infusion of cocaine (0.75 mg/kg/inf) under a fixed ratio [FR] schedule (starting FR=1, which was increased to FR 5 within 5 training sessions) schedule during daily 2-hr sessions for 14 days. Reinforcer deliveries were accompanied by the presentation of a stimulus light over the active lever followed by a 30-s time-out period during which lever presses had no programmed consequence. Following acquisition of cocaine self-administration, extinction of drug-seeking behavior took place during 2-hr daily sessions in which lever pressing produced no consequence. All other conditions remained unchanged. After 7 days of extinction, all rats reached the extinction criteria (total responses less than 20% of the training sessions).
Drug-induced reinstatement test was conducted on the day following the last extinction session. Rats were pretreated with vehicle, compounds 2 (15, 30 mg/kg) or 34 (10 mg/kg) 10 min prior to a priming injection of cocaine (10 mg/kg, i.p.) administered immediately before the start of the reinstatement session.
Data analyses: Data are expressed as mean±S.E.M. Differences in active lever responding between the last extinction session and reinstatement session were determined with paired t tests (within subjects comparison). The effects of compounds 2 on reinstatement were analyzed by a one-way analysis of variance (ANOVA) followed by post hoc Bonferroni's test (between subjects comparison). The effects of compounds 34 on reinstatement was analyzed by Student's t test. P<0.05 was considered statistically significant.

[5] = pretreatment 10 min prior to cocaine prime 10 mg/kg i.p.

T2 sequence (P47746 whole entry): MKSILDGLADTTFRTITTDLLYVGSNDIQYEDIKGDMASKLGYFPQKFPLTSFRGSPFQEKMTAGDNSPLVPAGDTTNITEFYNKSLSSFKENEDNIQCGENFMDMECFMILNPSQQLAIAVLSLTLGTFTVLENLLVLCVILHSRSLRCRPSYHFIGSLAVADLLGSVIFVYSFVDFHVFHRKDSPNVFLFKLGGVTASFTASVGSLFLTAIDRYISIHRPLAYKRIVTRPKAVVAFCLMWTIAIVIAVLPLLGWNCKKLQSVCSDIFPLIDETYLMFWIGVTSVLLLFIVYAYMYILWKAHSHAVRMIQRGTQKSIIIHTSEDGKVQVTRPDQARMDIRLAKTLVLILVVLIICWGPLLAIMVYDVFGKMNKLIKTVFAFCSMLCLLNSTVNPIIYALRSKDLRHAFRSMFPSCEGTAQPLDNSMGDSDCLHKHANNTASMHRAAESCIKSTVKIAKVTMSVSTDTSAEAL
T1 sequence (P21554 whole entry): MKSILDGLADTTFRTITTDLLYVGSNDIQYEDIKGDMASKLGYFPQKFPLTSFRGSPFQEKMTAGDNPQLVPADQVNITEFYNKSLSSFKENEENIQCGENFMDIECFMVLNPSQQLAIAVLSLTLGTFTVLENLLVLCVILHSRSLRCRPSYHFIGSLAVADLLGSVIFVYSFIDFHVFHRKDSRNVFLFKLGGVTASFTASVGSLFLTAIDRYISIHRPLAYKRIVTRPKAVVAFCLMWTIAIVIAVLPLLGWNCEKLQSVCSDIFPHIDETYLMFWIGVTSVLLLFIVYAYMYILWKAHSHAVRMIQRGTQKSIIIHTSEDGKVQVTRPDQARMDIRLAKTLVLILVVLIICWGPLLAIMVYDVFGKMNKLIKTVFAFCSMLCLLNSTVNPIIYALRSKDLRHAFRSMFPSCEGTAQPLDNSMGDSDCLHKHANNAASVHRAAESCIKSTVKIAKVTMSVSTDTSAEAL

| Structure (SMILES) | IC50 (human CB1 receptor [1]) [µM] | CB1 calcium assay Agonist screen (% CP55, 940 Emax) (human CB1 receptor [2]) | IC50 (CB1 receptor) [µM] | other results |
| --- | --- | --- | --- | --- |
| O=C(Nc1ccc(Cl)cc1)Nc1cccc(-c2ccc(Cl)c(Cl)c2)c1 [Compound 32, 3-(4-Chlorophenyl)-1-[3-(3,4-dichlorophenyl)phenyl]urea] | 0.03 ± 0.004 | 10.4 ± 2.1 % CP55, 940 Emax | 0.464 | – |
| Cc1cc(-c2cccc(NC(=O)Nc3ccc(Cl)cc3)c2)cs1 [Compound 49, 3-(4-Chlorophenyl)-1-[3-(5-methylthiophen-3-yl)phenyl]urea] | 0.04 ± 0.004 | 3.7 ± 1.7 % CP55, 940 Emax | 0.776 | – |
| O=C(Nc1ccc(Cl)cc1)Nc1cccc(-c2ccc(F)cc2)c1 [Compound 34, 3-(4-Chlorophenyl)-1-[3-(4-fluorophenyl)phenyl]urea] | 0.023 ± 0.002 | 8.8 ± 1.1 % CP55, 940 Emax | 0.151 | half-life ([3]; pH 7.4, 0.5 mg/mL, NADPH, 37° C., mean ± S.E.M.): > 5 h; microsomal CLint ([3]; pH 7.4, 0.5 mg/mL, NADPH, 37° C., mean ± S.E.M., read-out: Clearance): < 4.6 µL/min/mg; Attenuation of cocaine-induced reinstatement of cocaine-seeking behavior ([4]; dose 10 mg/kg, cocaine prime 10 mg/kg i.p.): produced the same degree of attenuation as that of 30 mg/kg of B; Attenuation of cocaine-induced reinstatement of cocaine-seeking behavior [4, 5]: attenuated the resumption of extinguished cocaine-seeking behavior |
| O=C(Nc1ccc(Cl)cc1)Nc1cccc(-c2cccc(N3CCCC3)n2)c1 [Compound B, 1-(4-Chlorophenyl)-3-{3-[6-(pyrrolidin-1-yl)pyridin-2-yl]phenyl}urea, reference compound] | – | 28.2 ± 4.8 % CP55, 940 Emax | 0.102 | Effect on [35S]GTP-γ-S binding level (CB1 receptor; CP55,940 as agonist probe): dose-dependently decreased; Attenuation of cocaine-induced reinstatement of cocaine-seeking behavior ([4]; dose 30 mg/kg, cocaine prime 10 mg/kg i.p.): significantly reduced cocaine-induced reinstatement behavior; Attenuation of cocaine-induced reinstatement of cocaine-seeking behavior [4, 5]: dose-dependently attenuated; also recorded: attenuated the resumption of extinguished cocaine-seeking behavior |
| O=C(Nc1ccc(Cl)cc1)Nc1cccc(-c2ccc3c(c2)OCO3)c1 [Compound 26, 1-[3-(2H-1,3-Benzodioxol-5-yl)phenyl]-3-(4-chlorophenyl)urea] | 0.07 ± 0.014 | 9.8 ± 3.5 % CP55, 940 Emax | 0.619 | – |
| O=C(Nc1ccc(Cl)cc1)Nc1cccc(-c2cc(Cl)cc(Cl)c2)c1 [Compound 31, 3-(4-Chlorophenyl)-1-[3-(3,5-dichlorophenyl)phenyl]urea] | 0.022 ± 0.002 | 15.5 ± 2.4 % CP55, 940 Emax | 0.299 | – |
| O=C(Nc1ccc(Cl)cc1)Nc1cccc(-c2nccs2)c1 [Compound 53, 3-(4-Chlorophenyl)-1-[3-(1,3-thiazol-2-yl)phenyl]urea] | 0.154 ± 0.014 | 20.1 ± 1.1 % CP55, 940 Emax | 1.26 | – |
| O=C(Nc1ccc(Cl)cc1)Nc1cccc(-c2cccc(-c3ccccc3)c2)c1 [Compound 38, 3-(4-Chlorophenyl)-1-[3-(3-phenylphenyl)phenyl]urea] | 0.195 ± 0.04 | 0.5 ± 0.2 % CP55, 940 Emax | 0.559 | – |
| O=C(Nc1ccc(Cl)cc1)Nc1cccc(-c2ncc[nH]2)c1 [Compound 72, 3-(4-Chlorophenyl)-1-[3-(1H-imidazol-2-yl)phenyl]urea] | 0.529 ± 0.098 | 4.3 ± 0.5 % CP55, 940 Emax | 0.343 | – |
| O=C(Nc1ccc(Cl)cc1)Nc1cccc(-c2cnc3ccccc3c2)c1 [Compound 44, 3-(4-Chlorophenyl)-1-[3-(quinolin-3-yl)phenyl]urea] | 0.516 ± 0.07 | 2.6 ± 1.2 % CP55, 940 Emax | 0.651 | – |
| O=C(Nc1ccc(Cl)cc1)Nc1cccc(-c2cscn2)c1 [Compound 52, 3-(4-Chlorophenyl)-1-[3-(1,3-thiazol-4-yl)phenyl]urea] | 0.084 ± 0.006 | 8.6 ± 4.4 % CP55, 940 Emax | 0.25 | – |
| O=C(Nc1ccc(Cl)cc1)Nc1cccc(-c2ccc[nH]2)c1 [Compound 65, 3-(4-Chlorophenyl)-1-[3-(1H-pyrrol-2-yl)phenyl]urea] | 0.169 ± 0.034 | 13.7 ± 0.1 % CP55, 940 Emax | 0.04 | – |
| COc1cccc(-c2cccc(NC(=O)Nc3ccc(Cl)cc3)c2)c1 [Compound 23, 3-(4-Chlorophenyl)-1-[3-(3-methoxyphenyl)phenyl]urea] | 0.081 ± 0.01 | 12.5 ± 1.9 % CP55, 940 Emax | 0.827 | – |

Further lines, with some results ahead:

| IC50 (human CB1 receptor [1]) [µM] | CB1 calcium assay Agonist screen (% CP55, 940 Emax) (human CB1 receptor [2]) | IC50 (CB1 receptor) [µM] | Structure (SMILES) | other results |
| --- | --- | --- | --- | --- |
| 0.178 ± 0.038 | 14.5 ± 2.5 % CP55, 940 Emax | 0.407 | O=C(Nc1ccc(Cl)cc1)Nc1cccc(-c2ccncc2)c1 [Compound 20, 3-(4-Chlorophenyl)-1-[3-(pyridin-4-yl)phenyl]urea] | Clearance ([3]; 0.5 mg/mL, NADPH, 37° C., mean ± S.E.M.): 33.1 ± 1.0 µL/min/mg; Increase in metabolic stability relative to B ([3]; half-life vs B): ~3 fold |
| 0.047 ± 0.013 | 8.8 ± 3.1 % CP55, 940 Emax | 2.65 | O=C(Nc1ccc(Cl)cc1)Nc1cccc(-c2ccccn2)c1 [Compound 18, 3-(4-Chlorophenyl)-1-[3-(pyridin-2-yl)phenyl]urea] | – |
| 0.036 ± 0.001 | 28.9 ± 0.6 % CP55, 940 Emax | 0.164 | O=C(Nc1ccc(Cl)cc1)Nc1cccc(-c2ccsc2)c1 [Compound 47, 3-(4-Chlorophenyl)-1-[3-(thiophen-3-yl)phenyl]urea] | – |
| 0.032 ± 0.007 | 5.1 ± 0.8 % CP55, 940 Emax | 0.437 | O=C(Nc1ccc(Cl)cc1)Nc1cccc(-c2ccccc2)c1 [Compound 22, 3-(4-Chlorophenyl)-1-(3-phenylphenyl)urea] | – |
| 0.165 ± 0.014 | 3.4 ± 2.9 % CP55, 940 Emax | 0.665 | Cn1cccc1-c1cccc(NC(=O)Nc2ccc(Cl)cc2)c1 [Compound 68, 3-(4-Chlorophenyl)-1-[3-(1-methyl-1H-pyrrol-2-yl)phenyl]urea] | – |
| 0.792 ± 0.043 | 28.8 ± 0.2 % CP55, 940 Emax | > 10 | O=C(Nc1ccc(Cl)cc1)Nc1cccc(N2CC3(COC3)C2)c1 [Compound 84, 3-(4-Chlorophenyl)-1-(3-{2-oxa-6-azaspiro[3.3]heptan-6-yl}phenyl)urea] | – |
